From patent US20090221829A1 (priority 2005, published 2009)

These molecules were tested on Candida albicans(KCTC 1940), Aspergillus niger (ATCC 9642) and Saccharomyces cerevisiae (assay: Relative antifungal activity by agar dilution method (vs Miconazole)). Details: agar dilution method; fungicidal concentration relative to control drug Miconazole (=4).
Type: cell-based
Text: Novel compounds represented by the above chemical formula (I), and the relative activities in accordance with the agar dilution method in Sabouraud dextrose agar media, Czapek agar media and Yeast Extract-Peptone-Dextrose agar media for Candida albicans(KCTC 1940), Aspergillus niger (ATCC 9642) and Saccharomyces cerevisiae are described respectively in following Table 1.
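Further: scores 5 to 7 mean a lower fungicidal concentration than Miconazole so higher is more potent.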

In order of falling “Relative Activity” value:
1. COc1cc2c(cc1OC)CC[N+](Cc1ccccc1F)=C2.[Cl-] [Compound No. 1, 2-(2-fluorophenyl)methyl-3,4-dihydro-6,7-dimethoxy-isoquinolinium chloride]  6
2. COc1cc2c(cc1OC)C(C)=[N+](Cc1ccccc1F)CC2.[Cl-] [Compound No. 2, 1-methyl-2-(2-fluorophenyl)methyl-3,4-dihydro-6,7-dimethoxy-isoquinolinium chloride]  6
3. COc1cc2c(cc1OC)C(CCl)=[N+](Cc1ccccc1F)CC2.[Cl-] [Compound No. 3, 1-chloromethyl-2-(2-fluorophenyl)methyl-3,4-dihydro-6,7-dimethoxy-isoquinolinium chloride]  6
4. CCC1=[N+](Cc2ccccc2F)CCc2cc(OC)c(OC)cc21.[Cl-] [Compound No. 4, 1-ethyl-2-(2-fluorophenyl)methyl-3,4-dihydro-6,7-dimethoxy-isoquinolinium chloride]  6
5. COc1cc2c(cc1OC)C(c1ccccc1F)=[N+](Cc1ccccc1F)CC2.[Cl-] [Compound No. 14, 1-(2-fluorophenyl)-2-(2-fluorophenyl)methyl-3,4-dihydro-6,7-dimethoxyisoquinolinium chloride]  6
6. COc1cc2c(cc1OC)C(c1cccc(F)c1F)=[N+](Cc1ccccc1F)CC2.[Cl-] [Compound No. 15, 1-(2,3-difluorophenyl)-2-(2-fluorophenyl)methyl-3,4-dihydro-6,7-dimethoxyisoquinolinium chloride]  6
7. COc1cc2c(cc1OC)C(c1ccc(F)cc1F)=[N+](Cc1ccccc1F)CC2.[Cl-] [Compound No. 16, 1-(2,4-difluorophenyl)-2-(2-fluorophenyl)methyl-3,4-dihydro-6,7-dimethoxyisoquinolinium chloride]  6
8. COc1cc2c(cc1OC)C(c1ccc(F)c(F)c1)=[N+](Cc1ccccc1F)CC2.[Cl-] [Compound No. 17, 1-(3,4-difluorophenyl)-2-(2-fluorophenyl)methyl-3,4-dihydro-6,7-dimethoxyisoquinolinium chloride]  6
9. COc1cc2c(cc1OC)C(c1cccc(Cl)c1)=[N+](Cc1ccccc1F)CC2.[Cl-] [Compound No. 19, 1-(3-chlorophenyl)-2-(2-fluorophenyl)methyl-3,4-dihydro-6,7-dimethoxyisoquinolinium chloride]  6
10. COc1cc2c(cc1OC)C(c1ccc(Cl)cc1)=[N+](Cc1ccccc1F)CC2.[Cl-] [Compound No. 20, 1-(4-chlorophenyl)-2-(2-fluorophenyl)methyl-3,4-dihydro-6,7-dimethoxyisoquinolinium chloride]  6
11. CCCCc1ccc(C2=[N+](Cc3ccccc3F)CCc3cc(OC)c(OC)cc32)cc1.[Cl-] [Compound No. 21, 1-(4-n-butylphenyl)-2-(2-fluorophenyl)methyl-3,4-dihydro-6,7-dimethoxyisoquinolinium chloride]  6
12. COc1cc2c(cc1OC)C(c1cccc(C(F)(F)F)c1)=[N+](Cc1ccccc1F)CC2.[Cl-] [Compound No. 23, 1-(3-trifluoromethylphenyl)-2-(2-fluorophenyl) methyl-3,4-dihydro-6,7-dimethoxyisoquinolinium chloride]  6
13. COc1cc2c(cc1OC)C(Cc1ccccc1F)=[N+](Cc1ccccc1F)CC2.[Cl-] [Compound No. 24, 1-(2-fluorophenyl)methyl-2-(2-fluorophenyl)methyl-3,4-dihydro-6,7-dimethoxyisoquinolinium chloride]  6
14. COc1cc2c(cc1OC)C(C)=[N+](Cc1ccc(C(F)(F)F)cc1)CC2.[Cl-] [Compound No. 26, 1-methyl-2-(4-trifluoromethylphenyl)methyl-3,4-dihydro-6,7-dimethoxyisoquinolinium chloride]  6
15. COc1cc2c(cc1OC)C(c1ccccc1F)=[N+](Cc1ccc(C(F)(F)F)cc1)CC2.[Cl-] [Compound No. 31, 1-(2-fluorophenyl)-2-(4-trifluoromethylphenyl)methyl-3,4-dihydro-6,7-dimethoxyisoquinolinium chloride]  6
16. COc1cc2c(cc1OC)C(c1ccc(C(C)(C)C)cc1)=[N+](Cc1ccc(C(F)(F)F)cc1)CC2.[Cl-] [Compound No. 32, 1-(4-t-butylphenyl)-2-(4-trifluoromethylphenyl)methyl-3,4-dihydro-6,7-dimethoxyisoquinolinium chloride]  6
17. COc1ccc(C[N+]2=C(C)c3cc(OC)c(OC)cc3CC2)cc1.[Cl-] [Compound No. 33, 1-methyl-2-(4-methoxyphenyl)methyl-3,4-dihydro-6,7-dimethoxyisoquinolinium chloride]  6
18. COc1cc2c(cc1OC)C(C(C)C)=[N+](Cc1ccc(F)c(F)c1)CC2.[Cl-] [Compound No. 40, 1-i-propyl-2-(3,4-difluorophenyl)methyl-3,4-dihydro-6,7-dimethoxyisoquinolinium chloride]  6
19. CCCCCC1=[N+](Cc2ccc(F)c(F)c2)CCc2cc(OC)c(OC)cc21.[Cl-] [Compound No. 41, 1-n-pentyl-2-(3,4-difluorophenyl)methyl-3,4-dihydro-6,7-dimethoxyisoquinolinium chloride]  6
20. CCCC1=[N+](Cc2ccccc2F)CCc2cc(OC)c(OC)cc21.[Cl-] [Compound No. 5, 1-propyl-2-(2-fluorophenyl)methyl-3,4-dihydro-6,7-dimethoxyisoquinolinium chloride]  5
21. COc1cc2c(cc1OC)C(C(C)C)=[N+](Cc1ccccc1F)CC2.[Cl-] [Compound No. 6, 1-i-propyl-2-(2-fluorophenyl)methyl-3,4-dihydro-6,7-dimethoxyisoquinolinium chloride]  5
22. COc1cc2c(cc1OC)C(CCCCl)=[N+](Cc1ccccc1F)CC2.[Cl-] [Compound No. 7, 1-(3-chloropropyl)-2-(2-fluorophenyl)methyl-3,4-dihydro-6,7-dimethoxyisoquinolinium chloride]  5
23. COc1cc2c(cc1OC)C(CC(C)C)=[N+](Cc1ccccc1F)CC2.[Cl-] [Compound No. 8, 1-(2-methyl)propyl-2-(2-fluorophenyl)methyl-3,4-dihydro-6,7-dimethoxyisoquinolinium chloride]  5
24. CCCCCC1=[N+](Cc2ccccc2F)CCc2cc(OC)c(OC)cc21.[Cl-] [Compound No. 9, 1-n-pentyl-2-(2-fluorophenyl)methyl-3,4-dihydro-6,7-dimethoxyisoquinolinium chloride]  4
25. CCCCCCC1=[N+](Cc2ccccc2F)CCc2cc(OC)c(OC)cc21.[Cl-] [Compound No. 10, 1-n-hexyl-2-(2-fluorophenyl)methyl-3,4-dihydro-6,7-dimethoxyisoquinolinium chloride]  4
26. CCCCCC1=[N+](Cc2ccc(C(F)(F)F)cc2)CCc2cc(OC)c(OC)cc21.[Cl-] [Compound No. 27, 1-n-pentyl-2-(4-trifluoromethylphenyl)methyl-3,4-dihydro-6,7-dimethoxyisoquinolinium chloride]  4
27. CCCCCCCC1=[N+](Cc2ccc(C(F)(F)F)cc2)CCc2cc(OC)c(OC)cc21.[Cl-] [Compound No. 28, 1-n-heptyl-2-(4-trifluoromethylphenyl)methyl-3,4-dihydro-6,7-dimethoxyisoquinolinium chloride]  4
28. CCCCCC1=[N+](Cc2ccc(OC)cc2)CCc2cc(OC)c(OC)cc21.[Cl-] [Compound No. 34, 1-n-pentyl-2-(4-methoxyphenyl)methyl-3,4-dihydro-6,7-dimethoxyisoquinolinium chloride]  4
29. CCCCCCC1=[N+](Cc2ccc(OC)cc2)CCc2cc(OC)c(OC)cc21.[Cl-] [Compound No. 35, 1-n-hexyl-2-(4-methoxyphenyl)methyl-3,4-dihydro-6,7-dimethoxyisoquinolinium chloride]  4
30. CCCCCCC1=[N+](Cc2ccc(F)c(F)c2)CCc2cc(OC)c(OC)cc21.[Cl-] [Compound No. 42, 1-n-hexyl-2-(3,4-difluorophenyl)methyl-3,4-dihydro-6,7-dimethoxyisoquinolinium chloride]  4
31. CCCCCCCC1=[N+](Cc2ccc(OC)cc2)CCc2cc(OC)c(OC)cc21.[Cl-] [Compound No. 36, 1-n-heptyl-2-(4-methoxyphenyl)methyl-3,4-dihydro-6,7-dimethoxyisoquinolinium chloride]  3
32. CCCCCCCCCCCCCCCC1=[N+](Cc2ccccc2F)CCc2cc(OC)c(OC)cc21.[Cl-] [Compound No. 13, 1-n-pentadecyl-2-(2-fluorophenyl)methyl-3,4-dihydro-6,7-dimethoxyisoquinolinium chloride]  2
33. CCCCCCCCCCCC1=[N+](Cc2ccc(OC)cc2)CCc2cc(OC)c(OC)cc21.[Cl-] [Compound No. 37, 1-n-undecyl-2-(4-methoxyphenyl)methyl-3,4-dihydro-6,7-dimethoxyisoquinolinium chloride]  2
34. CCCCCCCCCCCC1=[N+](Cc2ccc(C(F)(F)F)cc2)CCc2cc(OC)c(OC)cc21.[Cl-] [Compound No. 29, 1-n-undecyl-2-(4-trifluoromethylphenyl)methyl-3,4-dihydro-6,7-dimethoxyisoquinolinium chloride]  1
35. CCCCCCCCCCCCCCCC1=[N+](Cc2ccc(C(F)(F)F)cc2)CCc2cc(OC)c(OC)cc21.[Cl-] [Compound No. 30, 1-n-pentadecyl-2-(4-trifluoromethylphenyl)methyl-3,4-dihydro-6,7-dimethoxyisoquinolinium chloride]  1
36. CCCCCCCCCCCCCCCC1=[N+](Cc2ccc(F)cc2)CCc2cc(OC)c(OC)cc21.[Cl-] [Compound No. 38, 1-n-pentadecyl-2-(4-fluorophenyl)methyl-3,4-dihydro-6,7-dimethoxyisoquinolinium chloride]  1
